Results taken from patent publication US20220142955A1, “METHODS OF TREATING ORGANIC ACIDEMIAS” (HemoShear Therapeutics, Inc., priority 2019, published 2022).
“And” between values parts separate entries of the source, which are not always exact repeats. Equal values may be shown once. Read-outs that look alike come from different tables or passages of the source.

Tested on: PA primary hepatocytes
Assay: HemoShear Technology, PA primary hepatocytes (Examples 10, 11)
Format: cell-based, human
Description: For this experiment, we deployed the HemoShear REVEAL-Tx™ technology, which is based on the cone-and-plate configuration or viscometer combined with a porous polycarbonate membrane that mimics a filtering layer of sinusoidal endothelial cells (see: Dash A, Deering TG, Marukian S, et al. Physiological Hemodynamics and Transport Restore Insulin and Glucagon Responses in a Normal Glucose Milieu in Hepatocytes In Vitro. 73rd Scientific Sessions of the American Diabetes Association, 2013 (Chicago), and U.S. Pat. Nos. 7,811,782 and 9,500,642, and 9,617,521, each of which is incorporated by reference herein in its entirety).
Hepatocytes from propionic academia patients are plated in a collagen gel sandwich on one side of the membrane replicating the polarized orientation found in vivo within the hepatic sinusoids. On the other side, medium is continuously perfused and surface shear rates are applied across a range of physiological values derived from sinusoidal flow rates in vivo while also controlling transport in the system with in- and out-flow tubing to each compartment. Effectively, this creates a flow-based culture system where hepatocytes are shielded from direct effects of flow, as they would be in vivo, but perfusion, nutrient gradients, and interstitial fluid movement are maintained.
Biomarker levels are normalized to cell counts and cell volume to account for differences in the number of cells plated for each donor. […] This is most likely due to the presence of ^12C-succinyl-CoA in the sample, which has the same mass. In experiments described below, M-CoA is labeled with ^13C to determine a more accurate percent reduction. Compound 5 reduced the C3 concentration and the C3/C2 ratio with an EC50 similar to that for the reduction in P-CoA (FIGS. 7C, D).

[1] = PA pHeps, HemoShear, average ± SD

**Q.** For `CCC(C)(C)C(=O)O` [Compound 5, 2,2-dimethybutanoic acid], which EC90 (Homo sapiens, Hepatocyte, HemoShear, PA and MMA pHeps together, read-out: average EC90 value across all biomarkers) is on record?
**A.** 17.1 ± 13.4 µM

**Q.** What about the EC50 (Homo sapiens, Hepatocyte, PA donor 1, representative data (FIG. 7A), read-out: P-CoA reduction EC50) of the same compound?
**A.** 1840 nM

**Q.** What about the EC50 (Homo sapiens, Hepatocyte, PA donor 1, representative data (FIG. 7E), read-out: MCA reduction EC50) of the same compound?
**A.** 1960 nM

**Q.** What about the EC50 (Homo sapiens, Hepatocyte, PA pHeps, HemoShear, average ± SD, read-out: 2-Methylcitric acid (2MC) EC50) of the same compound?
**A.** 1100 ± 500 nM

**Q.** And the EC90 (Homo sapiens, Hepatocyte, PA pHeps, HemoShear, average ± SD, read-out: 2-Methylcitric acid (2MC) EC90)?
**A.** 7.9 ± 3.6 µM

**Q.** What about the EC50 (Homo sapiens, Hepatocyte, PA pHeps, HemoShear, average ± SD, read-out: 12C-Acetyl-Camitine (C2) EC50) of the same compound?
**A.** 4800 ± 200 nM

**Q.** What about the EC90 (Homo sapiens, Hepatocyte, PA pHeps, HemoShear, average ± SD, read-out: 12C-Acetyl-Camitine (C2) EC90) of the same compound?
**A.** 20.7 ± 13.1 µM

**Q.** What about the EC50 (Homo sapiens, Hepatocyte, PA pHeps, HemoShear, average ± SD, read-out: 12C-Propionyl-Carnitine (C3) EC50) of the same compound?
**A.** 2600 ± 1900 nM

**Q.** And the EC90 (Homo sapiens, Hepatocyte, PA pHeps, HemoShear, average ± SD, read-out: 12C-Propionyl-Carnitine (C3) EC90)?
**A.** 30.8 ± 26.4 µM

**Q.** And the EC50 (Homo sapiens, Hepatocyte, PA pHeps, HemoShear, average ± SD, read-out: 12C-Propionyl-CoA (P-CoA) EC50)?
**A.** 1900 ± 1000 nM

**Q.** What about the EC90 (Homo sapiens, Hepatocyte, PA pHeps, HemoShear, average ± SD, read-out: 12C-Propionyl-CoA (P-CoA) EC90) of the same compound?
**A.** 18.4 ± 11.3 µM

**Q.** What about the EC50 (Homo sapiens, Hepatocyte, PA pHeps, HemoShear, read-out: 12C-Acetyl-CoA EC50) of the same compound?
**A.** 2300 ± 1900 nM

**Q.** And the EC90 (Homo sapiens, Hepatocyte, PA pHeps, HemoShear, read-out: 12C-Acetyl-CoA EC90)?
**A.** 14.4 ± 13.6 µM

**Q.** And the EC50 (Homo sapiens, Hepatocyte, PA pHeps, HemoShear, read-out: CoASH EC50)?
**A.** 11600 ± 1200 nM

**Q.** What about the EC90 (Homo sapiens, Hepatocyte, PA pHeps, HemoShear, read-out: CoASH EC90) of the same compound?
**A.** 29.8 ± 24.3 µM

**Q.** And the EC50 (Homo sapiens, Hepatocyte, PA pHeps, HemoShear, read-out: Compound 5-CoA (formation) EC50)?
**A.** 3000 ± 1500 nM

**Q.** And the EC90 (Homo sapiens, Hepatocyte, PA pHeps, HemoShear, read-out: Compound 5-CoA (formation) EC90)?
**A.** 47.1 ± 39.7 µM

**Q.** What about the “12C-Acetyl-CoA Percent change at 30 μM” value (PA pHeps, HemoShear) of the same compound?
**A.** 54 ± 80.6%

**Q.** And the “CoASH Percent change at 30 μM” value (PA pHeps, HemoShear)?
**A.** −31.3 ± 24.2%

**Q.** And the “average reduction in the C3/C2 ratio” value (PA pHeps, HemoShear, at 30 μM)?
**A.** −2.1±1.2 log 2 fold change

**Q.** And the “2-Methylcitric acid (2MC) % change at 30 μM” value [1]?
**A.** −78.6±12.9%

**Q.** And the “12C-Acetyl-Camitine (C2) % change at 30 μM” value [1]?
**A.** 54 ± 80.6%

**Q.** What about the “12C-Propionyl-Carnitine (C3) % change at 30 μM” value [1] of the same compound?
**A.** −68.9±14.6% and −69.4 ± 16.2%

**Q.** And the “12C-Propionyl-CoA (P-CoA) % change at 30 μM” value [1]?
**A.** −78.8±10.9%

**Q.** What about the EC90 (PA pHeps, HemoShear, average ± SD, read-out: 12C-Propionyl-Carnitine (C3) EC90) of the same compound?
**A.** 32.1 ± 29.3 µM
